Data on one molecule can be found in PMC2717892 (2009).

The assay concerns T5 (DNA, single strand) TTTTT. Nature of the assay: direct excitation Eu. The conditions noted are these: 50 mM NaNO3; 20 mM HEPES pH 7.0; 25 µM complex; 5–50 µM nucleic acid.

Regarding `NC(=O)CN1CCN(CC(N)=O)CCN(Cc2ccc(CN3CCN(CC(N)=O)CCN(CC(N)=O)CCN(CC(N)=O)CC3)cc2)CCN(CC(N)=O)CC1.O.O.O.O.[Eu+3].[Eu+3]`, the binding entry is on record as “weak”.
